The subject of assay [1] is Klebsiella pneumoniae. Briefly: Antibacterial activity against Klebsiella pneumoniae ATCC 11296 assessed as inhibition of bacterial growth incubated for 18 to 24 hrs by microdilution method. The conditions noted are these: time 18-24 hrs. It is filed as functional.
Assay [2] relates to Klebsiella pneumoniae. Briefly: Antibacterial activity against Klebsiella pneumoniae KP63 assessed as inhibition of bacterial growth incubated for 18 to 24 hrs by microdilution method. The class given is functional. As to conditions: time 18-24 hrs.
Assay [3] relates to Klebsiella pneumoniae. Briefly: Antibacterial activity against Klebsiella pneumoniae KP63 assessed as inhibition of bacterial growth incubated for 18 to 24 hrs in presence of PAbetaN by microdilution method. It is filed as functional. The conditions noted are these: time 18-24 hrs.
The test system of assay [4] is Klebsiella pneumoniae. Put plainly: Antibacterial activity against Klebsiella pneumoniae ATCC 11296 assessed as inhibition of bacterial growth incubated for 18 to 24 hrs in presence of PAbetaN by microdilution method. As to conditions: time 18-24 hrs. It is filed as functional.
Assay [5] relates to Escherichia coli. Put plainly: Antibacterial activity against Escherichia coli AG102 assessed as inhibition of bacterial growth incubated for 18 to 24 hrs by microdilution method. The conditions noted are these: time 18-24 hrs. The class given is functional.
The test system of assay [6] is Escherichia coli. Put plainly: Antibacterial activity against Escherichia coli AG102 assessed as inhibition of bacterial growth incubated for 18 to 24 hrs in the presence of PAbetaN by microdilution method. It is filed as functional. The conditions noted are these: time 18-24 hrs.
The test system of assay [7] is Escherichia coli. Put plainly: Antibacterial activity against Escherichia coli ATCC 10536 assessed as inhibition of bacterial growth incubated for 18 to 24 hrs by microdilution method. The class given is functional. The conditions noted are these: time 18-24 hrs.
Assay [8] deals with Escherichia coli. Briefly: Antibacterial activity against Escherichia coli ATCC 10536 assessed as inhibition of bacterial growth incubated for 18 to 24 hrs in the presence of PAbetaN by microdilution method. As to conditions: time 18-24 hrs. The class given is functional.
In assay [9] the test system is Providencia stuartii. Briefly: Antibacterial activity against Providencia stuartii PS2636 assessed as inhibition of bacterial growth incubated for 18 to 24 hrs by microdilution method. The conditions noted are these: time 18-24 hrs. It is filed as functional.
Assay [10] concerns Providencia stuartii. Put plainly: Antibacterial activity against Providencia stuartii PS2636 assessed as inhibition of bacterial growth incubated for 18 to 24 hrs in the presence of PAbetaN by microdilution method. It is filed as functional. As to conditions: time 18-24 hrs.
Assay [11] has as its system Providencia stuartii. Put plainly: Antibacterial activity against Providencia stuartii NEA16 assessed as inhibition of bacterial growth incubated for 18 to 24 hrs by microdilution method. It is filed as functional. The conditions noted are these: time 18-24 hrs.
The subject of assay [12] is Providencia stuartii. Briefly: Antibacterial activity against Providencia stuartii NEA16 assessed as inhibition of bacterial growth incubated for 18 to 24 hrs in the presence of PAbN by microdilution method. The class given is functional. As to conditions: time 18-24 hrs.
Assay [13] deals with Pseudomonas aeruginosa. Put plainly: Antibacterial activity against Pseudomonas aeruginosa PA01 assessed as inhibition of bacterial growth incubated for 18 to 24 hrs by microdilution method. The conditions noted are these: time 18-24 hrs. It is filed as functional.
Assay [14] deals with Pseudomonas aeruginosa. Briefly: Antibacterial activity against Pseudomonas aeruginosa PA01 assessed as inhibition of bacterial growth incubated for 18 to 24 hrs in the presence of PAbetaN by microdilution method. It is filed as functional. As to conditions: time 18-24 hrs.
Assay [15] deals with Pseudomonas aeruginosa. Put plainly: Antibacterial activity against Pseudomonas aeruginosa PA124 assessed as inhibition of bacterial growth incubated for 18 to 24 hrs by microdilution method. It is filed as functional. As to conditions: time 18-24 hrs.
For assay [16], the system named is Pseudomonas aeruginosa. Briefly: Antibacterial activity against Pseudomonas aeruginosa PA124 assessed as inhibition of bacterial growth incubated for 18 to 24 hrs in the presence of PAbetaN by microdilution method. It is filed as functional. The conditions noted are these: time 18-24 hrs.
In assay [17] the test system is Staphylococcus aureus. Briefly: Antibacterial activity against methicillin-resistant Staphylococcus aureus 4 assessed as inhibition of bacterial growth incubated for 18 to 24 hrs by microdilution method. The class given is functional. As to conditions: time 18-24 hrs.
Assay [18] has as its system Staphylococcus aureus. Put plainly: Antibacterial activity against methicillin-resistant Staphylococcus aureus 4 assessed as inhibition of bacterial growth incubated for 18 to 24 hrs in the presence of PAbetaN by microdilution method. It is filed as functional. The conditions noted are these: time 18-24 hrs.
In assay [19] the test system is Staphylococcus aureus. Briefly: Antibacterial activity against methicillin-resistant Staphylococcus aureus 6 assessed as inhibition of bacterial growth incubated for 18 to 24 hrs by microdilution method. It is filed as functional. As to conditions: time 18-24 hrs.
The test system of assay [20] is Staphylococcus aureus. Put plainly: Antibacterial activity against methicillin-resistant Staphylococcus aureus 6 assessed as inhibition of bacterial growth incubated for 18 to 24 hrs in the presence of PAbetaN by microdilution method. The class given is functional. The conditions noted are these: time 18-24 hrs.
Assay [21] relates to CCRF-CEM. Briefly: Cytotoxicity against drug sensitive human CCRF-CEM cells assessed as inhibition of cell growth incubated for 72 hrs by resazurin dye based assay. It is filed as functional.
The test system of assay [22] is ADR5000 cell line. Put plainly: Cytotoxicity against multidrug resistant human CEM/ADR5000 cells overexpressing p-glycoprotein assessed as inhibition of cell growth incubated for 72 hrs by resazurin dye based assay. It is filed as functional. The conditions noted are these: ADR5000, 72 h.
The test system of assay [23] is RAW264.7. Put plainly: Antiinflammatory activity in mouse RAW264.7 cells assessed as inhibition of LPS-induced NO production. The class given is functional, cell-based.
The test system of assay [24] is HL-60. Briefly: Antiproliferative activity against human HL-60 cells assessed as inhibition of cell growth by MTT assay. It is filed as functional, cell-based.
In assay [25] the test system is SMMC-7721. Put plainly: Antiproliferative activity against human SMMC-7721 cells assessed as inhibition of cell growth by MTT assay. The class given is functional, cell-based.
Assay [26] concerns A549. Briefly: Antiproliferative activity against human A549 cells assessed as inhibition of cell growth by MTT assay. The class given is functional, cell-based.
Assay [27] has as its system MCF7. Briefly: Antiproliferative activity against human MCF7 cells assessed as inhibition of cell growth by MTT assay. The class given is functional, cell-based.
The subject of assay [28] is SW480. Put plainly: Antiproliferative activity against human SW480 cells assessed as inhibition of cell growth by MTT assay. The class given is functional, cell-based.
For assay [29], the system named is CCRF-CEM. Put plainly: Cytotoxicity against drug sensitive human CCRF-CEM cells assessed as inhibition of cell growth at 10 uM incubated for 72 hrs by resazurin dye based assay relative to control. It is filed as functional.
A short description of assay [30]: Resistance index, ratio of IC50 for multidrug resistant human CEM/ADR5000 cells overexpressing p-glycoprotein to IC50 for drug sensitive human CCRF-CEM cells. The class given is functional.

Each structure is given as a SMILES string. Converted amounts (≈) assume the structure as drawn.

Consider `COc1cc2occ(-c3ccc(C#N)cc3)c(=O)c2c(OC)c1CC=C(C)C`, for which the MIC in assay [1] is 130 µg/mL (≈ 346 µM); in assay [2], over 130 µg/mL; in [3], 1 µg/mL; in assay [4], 4 µg/mL; in assay [5], 130 µg/mL (≈ 346 µM); in assay [6], 130 µg/mL. Moreover, the MIC was determined as 32 µg/mL (≈ 85.2 µM) in assay [7]; 2 µg/mL in assay [8]; 130 µg/mL (≈ 346 µM) in assay [9]; 8 µg/mL in [10]; 16 µg/mL (≈ 42.6 µM) in [11]; 1 µg/mL in [12]. In addition, the MIC in assay [13] is 130 µg/mL (≈ 346 µM); in assay [14], 32 µg/mL; in [15], over 130 µg/mL; in assay [16], 32 µg/mL; in assay [17] it was 64 µg/mL (≈ 170 µM); in assay [18], 4 µg/mL. For the same compound, the MIC in [19] was 130 µg/mL (≈ 346 µM); in assay [20], 16 µg/mL. In addition, the IC50 in assay [21] and in assay [22] was 20000 nM in each case.

`COc1ccc(-c2coc3cc(OC)c(CC=C(C)C)c(OC)c3c2=O)cc1`: the MIC in assay [1] is 130 µg/mL (≈ 342 µM); in assay [2] it was over 130 µg/mL; in [3] it was 1 µg/mL; in assay [4], 2 µg/mL; in [5] it was 32 µg/mL (≈ 84.1 µM); in assay [6] it was 2 µg/mL. Also, the MIC in [7] came to 32 µg/mL (≈ 84.1 µM); in assay [8] it was 2 µg/mL; in assay [9], 130 µg/mL (≈ 342 µM); in assay [10] it was 4 µg/mL; in assay [11], 130 µg/mL (≈ 342 µM); in assay [12], 4 µg/mL. The MIC in assay [13] was over 130 µg/mL; in assay [14], 64 µg/mL; in [15], 64 µg/mL (≈ 168 µM); in assay [16] it was 8 µg/mL; in assay [17], 64 µg/mL (≈ 168 µM); in assay [18] it was 8 µg/mL. Further, the MIC in assay [19] was determined as 32 µg/mL (≈ 84.1 µM); in assay [20], 2 µg/mL. Also, the IC50 in assay [23] worked out at 2060 nM; in [24], 630 nM; in [25], 630 nM; in assay [26], 630 nM; in assay [27] it was 630 nM; in assay [28] it was 630 nM. Moreover, the inhibition at 10 µM in assay [29] is under 50%.

For `COc1cc2occ(-c3ccc4c(c3)OCO4)c(=O)c2c(OC)c1CC=C(C)C`, the MIC in assay [1] came out at 130 µg/mL (≈ 330 µM); in assay [2], 16 µg/mL (≈ 40.6 µM); in [3], 1 µg/mL; in assay [4] it was 1 µg/mL; in assay [5] it was 130 µg/mL (≈ 330 µM); in assay [6], 32 µg/mL. In addition, the MIC came out at 130 µg/mL (≈ 330 µM) in [7]; 64 µg/mL in assay [8]; 130 µg/mL (≈ 330 µM) in assay [9]; 32 µg/mL in assay [10]; 130 µg/mL (≈ 330 µM) in assay [11]; 8 µg/mL in [12]. For the same compound, the MIC in assay [13] stood at 64 µg/mL (≈ 162 µM); in [14], 16 µg/mL; in assay [15] it was 130 µg/mL (≈ 330 µM); in assay [16], 4 µg/mL; in [17] it was 130 µg/mL (≈ 330 µM); in [18], 32 µg/mL. The MIC in [19] stood at 32 µg/mL (≈ 81.1 µM); in [20] it was 2 µg/mL. In assay [29], the inhibition at 10 µM is under 50%.

As to `O=C(O)c1cn(C2CC2)c2cc(N3CCNCC3)c(F)cc2c1=O` [CIPROFLOXACIN], the MIC in [1] stood at 1 µg/mL (≈ 3.02 µM); in [9], 4 µg/mL (≈ 12.1 µM); in assay [10], 0.5 µg/mL; in assay [11] it was 2 µg/mL (≈ 6.04 µM); in [12], 0.25 µg/mL; in assay [15] it was 4 µg/mL (≈ 12.1 µM). The MIC in [16] was 1 µg/mL; in assay [17], 8 µg/mL (≈ 24.1 µM); in assay [18], 1 µg/mL; in [19] it was 4 µg/mL (≈ 12.1 µM); in assay [20], 1 µg/mL.

For the compound `CC(=O)O[C@H]1C(=O)[C@@]2(C)[C@H]([C@H](OC(=O)c3ccccc3)[C@]3(O)C[C@H](OC(=O)[C@H](O)[C@@H](NC(=O)c4ccccc4)c4ccccc4)C(C)=C1C3(C)C)[C@]1(OC(C)=O)CO[C@@H]1C[C@@H]2O` [PACLITAXEL], in assay [30], the “Ratio IC50” value is recorded as 390.

These data come from ChEMBL document CHEMBL5321245, “Synthesis and Bioactivity of Isoflavones from Ficus carica and Some Non-Natural Analogues” (J Nat Prod, 2023).
